# Key:
# [1] = tested on: E. multilocularis metacestode vesicles; test: Phosphoglucose isomerase (PGI) release assay (damage-marker release) on metacestode vesicles; format: cell-based, Echinococcus multilocularis; conditions: 10 μM; for PGI d5 (relative PGI release): 5 days; for PGI d12 (relative PGI release): 12 days
# Experimental: In order to quantify the drug-induced damage on whole metacestode vesicles, phosphoglucose isomerase (PGI) assay was performed as described previously ([Stadelmann et al., 2010]) with few adaptations published recently ([Kaethner et al., 2023]). In short, 8 to 12 weeks-old metacestode vesicles were purified using 2 % sucrose with subsequent washes in PBS. Metacestode vesicles were diluted in two volumes of DMEM without phenol red containing penicillin (100 U/mL) and streptomycin (100 μg/mL). […] 0.1 % DMSO was used as a negative solvent control and 0.1 % Triton X-100 was used as a positive total damage control. Metacestode vesicles were incubated under a humid, 5 % CO2 atmosphere at 37 °C. After five and twelve days, supernatant was taken and pictures were made using a Nikon SMZ18 stereo microscope (Nikon, Basel, Switzerland) at 7.5 × magnification. PGI activity in the supernatants was measured on a HIDEX Sense microplate reader (Hidex, Turku, Finland). The corresponding values of the DMSO controls were subtracted from the values of the compounds and then PGI activity was calculated relative to 0.1 % Triton X-100. […] IC50 values were calculated applying the 3 parameter Weibull type 1 in R for each of the three independent experiments ([Ritler et al., 2020]).
# [2] = tested on: E. multilocularis metacestode vesicles; test: Metacestode vesicle viability assay (ATP, CellTiter-Glo); format: cell-based, Echinococcus multilocularis
# Experimental: Viability was assessed after 12 days using the same metacestode vesicles as for the PGI release assay. Triton X-100 was added to each well to a final concentration of 0.1 %. Subsequently the metacestode vesicles were broken mechanically and 50 μL of the supernatant was mixed with 50 μL of CellTiter-Glo® buffer (Promega, Dübendorf, Switzerland). Measurements were performed on a HIDEX Sense microplate reader.
# [3] = overview screen, singlets, relative to 0.1 % Triton X-100, DMSO subtracted
# [4] = overview screen, 10 μM, singlets, 12 days, relative to DMSO control
# [5] = confirmation screen, triplicates, mean
# [6] = confirmation screen, 10 μM, triplicates, mean, 12 days
SMILES,"PGI d5 (relative PGI release) [1, 3] [%]","PGI d12 (relative PGI release) [1, 3] [%]","Viability d12 (relative viability) [2, 4] [%]",Viability d12 (relative viability) ([2]; 10 µM) [%],"PGI d5 (relative PGI release) [1, 5] [%]","PGI d12 (relative PGI release) [1, 5] [%]","Viability d12 (relative viability) [2, 6] [%]"
Cc1ccc(S(=O)(=O)Nc2cccc3cccnc23)cc1 [MMV233495],2.157,26.0665,70.919,–,–,–,–
O=c1[nH]cnc2c1ncn2[C@H]1CC[C@@H](CO)O1 [MMV637306],-0.8027,5.98,–,229.844,–,–,–
CCCCCCCCC(CP(=O)(O)C(C)N)C(=O)O (stereo not drawn) [MMV1582487],-0.4977,-10.5393,34.1503,–,–,–,–
CN(C)CC(=O)Nc1ccc2[nH]c(=O)c3ccccc3c2c1 [MMV1580480],-0.09241,-0.9318,169.884,–,–,–,–
CCCCCCC1c2ccc(O)cc2Oc2cc(O)ccc21 [MMV1593535],1.318,-18.7037,92.5147,–,–,–,–
Cn1c2ccccc2c(=O)c2c(O)cccc21 [MMV1580500],1.098,-0.5737,90.8954,–,–,–,–
Cc1ncc([N+](=O)[O-])n1CC(O)CN1CCOCC1 (stereo not drawn) [MMV1613562],0.195,-6.037,97.4765,–,–,–,–
CC(=O)Nc1cc(NS(=O)(=O)c2ccc(Cl)cc2)cc2c(Cl)n[nH]c12 [MMV1579779],1.247,30.3469,88.2086,–,–,–,–
CC(C)Oc1cccc(NC(=O)c2ccccc2C(F)(F)F)c1 [MMV1009286],-2.405,-25.3832,77.2348,–,–,–,–
O=C(O)c1ccc(-c2ccc(O[C@H]3O[C@H](CO)[C@@H](O)[C@H](O)[C@@H]3O)cc2)cc1 [MMV1633970],0.1129,-1.296,109.047,–,–,–,–
Clc1cc2nc(C3CCNCC3)n(Cc3ccc(CNCCc4c[nH]cn4)cc3)c2cc1Cl [MMV1580842],-1.296,-12.8721,102.952,–,–,–,–
CC(=O)O[C@H]1C[C@@]2(C)[C@@H](C[C@@H](O)[C@H]3[C@@]4(C)CC[C@@H](O)[C@@H](C)[C@@H]4CC[C@@]32C)/C1=C(\CCC=C(C)C)C(=O)O [MMV1578575],2.315,-12.4921,–,144.199,–,–,–
CCc1cc(O)c(Oc2ccc(C(N)=O)cc2F)cc1F [MMV1578564],19.4124,-2.538,125.644,–,–,–,–
CONC(=N)c1ccc(-c2ccc(-c3ccc(C(=N)NOC)cc3)o2)cc1 [MMV000059],-1.411,-24.9567,226.694,–,–,–,–
Nc1ccc(-c2nc3cc(C(F)(F)F)ccc3n2C23CC4CC(CC(C4)C2)C3)cc1 [MMV1634385],1.378,1.206,100.869,–,–,–,–
C[C@@]1(O)[C@H](O)[C@@H](CO)O[C@H]1n1ccc2c(N)ncnc21 [MMV1593519],0.01923,0.1259,152.992,–,–,–,–
O=C(Nc1ccc(N2CCN(C(=O)c3ccccc3)CC2)cc1)c1ccc2c(c1)OCO2 [MMV1580505],-0.142,-0.2928,160.891,–,–,–,–
c1cnc(NCc2ccc(CNc3ncccn3)cc2)nc1 [MMV1580490],0.6457,0.4288,45.3723,–,–,–,–
O=C(O)CSc1cc(NS(=O)(=O)c2cccc3cccnc23)c2ccccc2c1O [MMV218827],-0.1296,0.539,73.5027,–,–,–,–

SMILES,"PGI d5 (relative PGI release) [1, 3] [%]","PGI d12 (relative PGI release) [1, 3] [%]","Viability d12 (relative viability) [2, 4] [%]",Viability d12 (relative viability) ([2]; 10 µM) [%],"PGI d5 (relative PGI release) [1, 5] [%]","PGI d12 (relative PGI release) [1, 5] [%]","Viability d12 (relative viability) [2, 6] [%]"
CCc1ccc(C2CC(C(F)(F)F)n3ncc(C(=O)NCc4ccc(OC)cc4)c3N2)cc1 (stereo not drawn) [MMV831201],-0.786,-0.2956,124.843,–,–,–,–
CCCCCc1ccc(C(=O)NCCn2cc(CCCCCc3c[nH]c(N)n3)nn2)cc1.Cl [MMV1580847],2.795,5.023,106.136,–,–,–,–
O=[N+]([O-])/C(Br)=C/c1ccc(Br)o1 [MMV1645051],1.139,-20.9736,16.4489,–,–,–,–
CC(C)Nc1ncnc2c1cnn2-c1ccc(Cl)cc1 [MMV108465],-2.878,28.117,65.6735,–,–,–,–
CC[C@H]1OC(=O)[C@H](C)[C@@H](O[C@H]2C[C@@](C)(OC)[C@@H](O)[C@H](C)O2)[C@H](C)[C@@H](O[C@@H]2O[C@H](C)C[C@H](N(C)C)[C@H]2O)[C@](C)(O)C[C@@H](C)C(=O)[C@H](C)[C@@H](O)[C@]1(C)O [MMV003137],1.971,-21.4001,63.8752,–,–,–,–
O=C(Nc1nnc(-c2ccc(Cl)cc2)o1)c1nc2ccccc2s1 [MMV102833],3.0788,1.422,141.762,–,–,–,–
CCc1nc(N)nc(N)c1C#CC(C)c1cc(OC)cc(-c2ccncc2)c1 (stereo not drawn) [MMV1580844],-2.169,33.6502,16.6994,–,-0.46,0.83,84.60
O=C(NCc1ccccc1Cl)c1cnc2ccccc2n1 [MMV1230557],-1.462,-11.048,58.5314,–,–,–,–
N#Cc1cc([N+](=O)[O-])ccc1Oc1ccccc1Cl [MMV1580800],1.0953,-9.284,90.6917,–,–,–,–
O=C(Nc1ccccc1C(=O)O)c1cccc(Oc2ccccc2)c1 [MMV1579784],0.07516,11.2094,41.5815,–,–,–,–
OC1O[C@H](CSc2ccc(F)cc2)[C@@H](O)[C@H]1O (stereo partly drawn) [MMV1581550],-2.303,-13.5328,95.5206,–,–,–,–
CCN(CC)S(=O)(=O)c1ccc(Cl)c(C(=O)Nc2sc3c(c2C#N)CCCC3)c1 [MMV1634384],0.5897,3.142,106.793,–,–,–,–
CO/N=C(\C(=O)N[C@@H]1C(=O)N2C(C(=O)OCOC(=O)C(C)(C)C)=C(/C=C\c3scnc3C)CS[C@H]12)c1csc(N)n1 [MMV002560],-2.539,-11.7788,19.8723,–,–,–,–
NC(=O)c1cnc2ccc(S(=O)(=O)c3ccccc3)cc2c1Nc1ccc(O)cc1 [MMV1580848],-0.9531,29.1599,51.7682,–,–,–,–
CN(C(=O)C1(c2ccc(Cl)cc2)CCC1)c1ccccc1 [MMV1581030],0.6829,-0.7665,114.111,–,–,–,–
O=C(NCc1cccc2ccccc12)c1cccs1 [MMV1579845],-2.677,-26.5326,53.7721,–,–,–,–
O=C(Cc1ccccc1F)Nc1nc2ccccc2[nH]1 [MMV1578576],4.048,84.4551,28.1158,–,0.17,0.0454,92.12
Cc1c(CN(C)C(=O)/C=C/c2cnc3c(c2)C(C)(C)C(=O)N3)oc2ccccc12 [MMV1579788],17.9293,63.9713,5.845,–,-0.0109,-0.0852,76.12
CCCCc1ccc(-c2cc(C(=O)O)cc(-c3ccc(Cl)cc3)n2)cc1 [MMV1580852],-0.3014,-1.795,95.9921,–,–,–,–

# From publication PMC12410356 (International Journal for Parasitology: Drugs and Drug …, 2025)
